The target in test [1] is EGFR WT (Homo sapiens, UniProt P00533). As to the kind of experiment: Kinase inhibition assay (mobility shift). In kind it is biochemical. On the procedure: (§1) Experiment 1 Kinase Inhibition Assay Mobility shift assays were performed to determine inhibitory activity of compounds against EGFR^Δ19del/T790M/C797S, EGFR WT and IGF1R kinases. The enzymatic reaction scheme is as follows:
(§2) 1. Preparing 1*Kinase Buffer as follows:
(§3) 2. Preparing compound concentration gradient: the initial concentration of the compound tested in the assay was 3,000 nM or 100 nM, which is then diluted to be 100-fold final concentration in 100% DMSO in a 384-source plate. Compounds in 10 concentrations were diluted in a 3-fold gradient with Precision. 250 nL of compound in 100-fold final concentration was transferred to OptiPlate-384F plate by using a dispenser named Echo 550.
(§4) 3. Preparing kinase solution at 2.5-fold the final concentration with 1×kinase buffer.
(§5) 4. Adding 10 μL of kinase solution at 2.5-fold the final concentration to compound wells and positive control wells respectively; and adding 10 μL of 1×kinase buffer to negative control wells.
(§6) 5. Centrifuging the wells at 1,000 rpm for 30 seconds, mixing the reaction plate well by shaking and incubating it at room temperature for 10 minutes.
(§7) 6. Preparing a mixed solution of ATP and kinase substrate at 5-fold/3-fold the final concentration with 1×Kinase buffer, respectively.
(§8) 7. Initiating the reaction by adding 15 μL of the mixed solution of ATP and kinase substrate at 5-fold/3-fold the final concentration.
(§9) 8. Centrifuging the 384-well plate at 1,000 rpm for 30 seconds, mixing the reaction plate well by shaking and incubating it at room temperature for a corresponding time.
(§10) 9. Adding 30 μL of assay stop solution to stop the kinase reaction, and centrifuging the plate at 1,000 rpm for 30 seconds and mixing it well by shaking.
(§11) 10. Reading the conversion rate with Caliper EZ Reader.
(§12) [formula] • wherein, “Conversion % sample” is the conversion rate reading of the sample;
(§13) “Conversion %_min” is the mean value of the negative control wells, representing the conversion rate readings of the well without enzymatic activity; “Conversion %_max” is the mean value of the positive control wells, representing the conversion rate readings of the wells without compound inhibition. • Dose-response curve is plotted with the logarithmic concentration on the X-axis and percent inhibition on the Y-axis. The fitting of the dose-response curve is made with the module “log(inhibitor) vs. response—Variable slope” of the analysis software GraphPad Prism 5, so that the IC50 value of each compound on enzymatic activity is obtained. • The calculation formula is: Y=Bottom+(Top−Bottom)/(1+10^((Log IC50−X)*HillSlope)).

Test [2] addresses EGFR Δ19del/T790M/C797S (Homo sapiens, UniProt P00533, T790M/C797S, form not given). In words: Kinase inhibition assay (mobility shift). In kind it is biochemical. The procedure:
as §1, §2, §3, §4, §5, §6, §7, §8, §9, §10, §11, §12, §13

Test [3] has as its target IGF1R (Homo sapiens, UniProt P08069). In words: Kinase inhibition assay (mobility shift). In kind it is biochemical. On the procedure: as §1, §2, §3, §4, §5, §6, §7, §8, §9, §10, §11, §12, §13
In test [4] the target is Ba/F3 EGFR WT (Homo sapiens, UniProt P00533). As to the kind of experiment: Cell proliferation experiment (CellTiter Glo, 72 hours). In kind it is cell-based. Conditions: read-out: BaF3 EGFR WT IC50. On the procedure: (§14) Experiment 2 Cell Proliferation Experiment
(§15) Suspension cells: Ba/F3 cells with stable overexpression of Δ19del/T790M/C797S mutant gene, named Ba/F3-Δ19del/T790M/C797S; Ba/F3 cells with overexpression of EGFR WT, named Ba/F3 EGFR WT.
(§16) RPMI 1640 with 10% FBS and 1% Penicillin-Streptomycin, or DMEM with 10% FBS and 1% Penicillin-Streptomycin.
(§17) a) Diluting compounds being tested (20 mM stock solutions), as an initial concentration, to 10 mM with 100% DMSO, followed by diluting compounds serially in a 3-fold gradient such that each compound is diluted into 12 concentrations (Cat #P-05525, Labcyte).
(§18) b) Diluting the above compound solutions for 100-fold with culture medium to prepare 10-fold working solution.
(§19) b) Seeding cells into 96-well cell culture plate at a density of 2000 or 3000 cells/well, with 135 μL/well.
(§20) a) Adding the compound prepared in step 2 to the cell plate at 15 μL per well, resulting in a final maximum concentration of 10000 nM or 1111 nM. The compounds is diluted serially in a 3-fold gradient such that each compound is diluted into 9 concentrations, wherein the final concentration of DMSO is 0.1%. Blank control wells are added with medium (0.1% DMSO).
(§21) b) Re-incubating the cells in an incubator for 72 hours. 5. Detection
(§22) a) Adding 50 μL of CTG reagent (CellTiter Glo kit, promega, Cat #G7573) to the 96-well cell culture plate.
(§23) b) Shaking the plate for 2 minutes and reacting at room temperature for 10 minutes.
(§24) c) Reading the luminescence signal value (Lum) using PerkinElmer reader.
(§25) The cell survival inhibition rate of each well was calculated. The data was analyzed by GraphPad Prism 6.0 software. The dose-response curve was obtained by fitting the data with a nonlinear regression equation. The IC50 of each compound was calculated as follows:
(§26) Cell survival inhibition rate (%)=(1−(Lumcompound tested−Lummedium control)/(Lumcell control−Lummedium control))×100%
(§27) Y=Min+(Max−Min)/(1+10^((Log IC50−X)*Slope));
(§28) X: logarithm of compound concentration. Y: cell survival inhibition rate.

For test [5], the target named is Ba/F3-Δ19del/T790M/C797S (Homo sapiens, UniProt P00533, T790M/C797S, cells depend on it, form not given). The test is described as above. In kind it is cell-based. As to conditions: read-out: Ba/F3/EGFR Δ19del/T790M/C797S IC50. On the procedure: as §14, §15, §16, §17, §18, §19, §20, §21, §22, §23, §24, §25, §26, §27, §28
The test system of test [6] is human epidermal cancer cells A431 carrying EGFR WT. Described as above. The class given is cell-based. Conditions: Homo sapiens, A-431. On the procedure: as §14
Adherent cells: human epidermal cancer cells A431 carrying EGFR WT.
as §16, §17, §18, §19, §20, §21, §22, §23, §24, §25, §26, §27, §28

Chain of Ba/F3 EGFR WT (P00533 whole entry, stated change not applied): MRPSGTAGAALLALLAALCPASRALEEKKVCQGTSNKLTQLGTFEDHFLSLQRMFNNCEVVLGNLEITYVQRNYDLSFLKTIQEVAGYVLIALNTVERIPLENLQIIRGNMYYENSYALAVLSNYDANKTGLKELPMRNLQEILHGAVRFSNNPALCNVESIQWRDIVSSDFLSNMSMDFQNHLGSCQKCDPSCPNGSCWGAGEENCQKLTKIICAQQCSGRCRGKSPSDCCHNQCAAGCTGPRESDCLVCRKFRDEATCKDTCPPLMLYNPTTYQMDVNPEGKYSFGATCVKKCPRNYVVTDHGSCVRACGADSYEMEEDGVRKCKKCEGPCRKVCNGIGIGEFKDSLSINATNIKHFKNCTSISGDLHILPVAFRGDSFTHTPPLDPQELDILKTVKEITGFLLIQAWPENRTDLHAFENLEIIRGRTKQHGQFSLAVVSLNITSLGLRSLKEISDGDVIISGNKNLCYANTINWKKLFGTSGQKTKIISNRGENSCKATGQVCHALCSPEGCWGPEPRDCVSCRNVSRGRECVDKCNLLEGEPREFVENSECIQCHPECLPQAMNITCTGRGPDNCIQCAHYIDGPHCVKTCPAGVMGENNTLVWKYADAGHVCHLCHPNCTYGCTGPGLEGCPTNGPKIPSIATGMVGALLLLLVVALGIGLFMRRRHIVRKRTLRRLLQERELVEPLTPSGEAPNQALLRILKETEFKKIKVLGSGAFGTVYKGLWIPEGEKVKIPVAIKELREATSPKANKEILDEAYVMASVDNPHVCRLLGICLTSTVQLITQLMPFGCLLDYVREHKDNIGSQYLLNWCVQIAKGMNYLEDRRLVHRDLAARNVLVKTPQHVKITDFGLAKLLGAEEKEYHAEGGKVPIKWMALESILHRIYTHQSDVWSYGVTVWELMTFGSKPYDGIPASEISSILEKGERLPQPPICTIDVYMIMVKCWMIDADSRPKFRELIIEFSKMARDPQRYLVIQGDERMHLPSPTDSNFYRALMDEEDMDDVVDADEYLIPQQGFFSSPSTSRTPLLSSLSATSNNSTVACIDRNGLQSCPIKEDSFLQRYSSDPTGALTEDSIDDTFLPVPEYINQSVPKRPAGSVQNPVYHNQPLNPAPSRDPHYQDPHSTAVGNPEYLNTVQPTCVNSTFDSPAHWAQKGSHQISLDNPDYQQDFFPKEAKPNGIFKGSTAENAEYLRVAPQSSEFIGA
Chain of Ba/F3-Δ19del/T790M/C797S (P00533 with tags, fused parts or gaps DEL746-750/T790M/C797S, form open): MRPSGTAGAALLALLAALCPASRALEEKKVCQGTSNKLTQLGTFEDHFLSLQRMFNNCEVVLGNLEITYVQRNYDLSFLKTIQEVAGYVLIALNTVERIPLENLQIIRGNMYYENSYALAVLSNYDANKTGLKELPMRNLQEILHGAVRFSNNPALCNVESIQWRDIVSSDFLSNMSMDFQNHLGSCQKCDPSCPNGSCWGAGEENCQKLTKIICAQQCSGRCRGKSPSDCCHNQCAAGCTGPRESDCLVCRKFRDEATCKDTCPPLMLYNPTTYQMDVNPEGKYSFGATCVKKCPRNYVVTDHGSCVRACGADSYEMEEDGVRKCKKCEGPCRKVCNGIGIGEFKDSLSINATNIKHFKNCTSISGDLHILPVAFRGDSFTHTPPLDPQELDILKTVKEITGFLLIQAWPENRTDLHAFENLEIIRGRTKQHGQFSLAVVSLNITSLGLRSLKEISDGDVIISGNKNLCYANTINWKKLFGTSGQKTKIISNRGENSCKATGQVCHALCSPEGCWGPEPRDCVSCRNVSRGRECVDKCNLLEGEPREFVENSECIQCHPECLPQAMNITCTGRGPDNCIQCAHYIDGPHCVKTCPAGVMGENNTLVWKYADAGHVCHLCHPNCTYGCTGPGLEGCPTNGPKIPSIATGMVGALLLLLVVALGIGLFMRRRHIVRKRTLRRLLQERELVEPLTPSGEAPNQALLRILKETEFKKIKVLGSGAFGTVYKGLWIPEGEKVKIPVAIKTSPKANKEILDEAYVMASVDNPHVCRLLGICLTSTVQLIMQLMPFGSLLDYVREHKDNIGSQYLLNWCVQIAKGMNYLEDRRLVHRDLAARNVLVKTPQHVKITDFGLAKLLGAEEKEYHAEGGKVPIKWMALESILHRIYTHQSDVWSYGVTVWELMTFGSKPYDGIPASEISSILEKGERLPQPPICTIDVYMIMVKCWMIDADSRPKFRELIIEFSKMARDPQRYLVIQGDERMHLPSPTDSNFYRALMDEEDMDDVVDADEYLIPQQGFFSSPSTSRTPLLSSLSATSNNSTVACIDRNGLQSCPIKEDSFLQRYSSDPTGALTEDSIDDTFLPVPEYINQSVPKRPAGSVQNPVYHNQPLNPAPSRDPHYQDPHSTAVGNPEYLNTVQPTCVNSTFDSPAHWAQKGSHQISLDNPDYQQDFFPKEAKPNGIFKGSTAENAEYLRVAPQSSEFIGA
Chain of EGFR WT (P00533 25-1210): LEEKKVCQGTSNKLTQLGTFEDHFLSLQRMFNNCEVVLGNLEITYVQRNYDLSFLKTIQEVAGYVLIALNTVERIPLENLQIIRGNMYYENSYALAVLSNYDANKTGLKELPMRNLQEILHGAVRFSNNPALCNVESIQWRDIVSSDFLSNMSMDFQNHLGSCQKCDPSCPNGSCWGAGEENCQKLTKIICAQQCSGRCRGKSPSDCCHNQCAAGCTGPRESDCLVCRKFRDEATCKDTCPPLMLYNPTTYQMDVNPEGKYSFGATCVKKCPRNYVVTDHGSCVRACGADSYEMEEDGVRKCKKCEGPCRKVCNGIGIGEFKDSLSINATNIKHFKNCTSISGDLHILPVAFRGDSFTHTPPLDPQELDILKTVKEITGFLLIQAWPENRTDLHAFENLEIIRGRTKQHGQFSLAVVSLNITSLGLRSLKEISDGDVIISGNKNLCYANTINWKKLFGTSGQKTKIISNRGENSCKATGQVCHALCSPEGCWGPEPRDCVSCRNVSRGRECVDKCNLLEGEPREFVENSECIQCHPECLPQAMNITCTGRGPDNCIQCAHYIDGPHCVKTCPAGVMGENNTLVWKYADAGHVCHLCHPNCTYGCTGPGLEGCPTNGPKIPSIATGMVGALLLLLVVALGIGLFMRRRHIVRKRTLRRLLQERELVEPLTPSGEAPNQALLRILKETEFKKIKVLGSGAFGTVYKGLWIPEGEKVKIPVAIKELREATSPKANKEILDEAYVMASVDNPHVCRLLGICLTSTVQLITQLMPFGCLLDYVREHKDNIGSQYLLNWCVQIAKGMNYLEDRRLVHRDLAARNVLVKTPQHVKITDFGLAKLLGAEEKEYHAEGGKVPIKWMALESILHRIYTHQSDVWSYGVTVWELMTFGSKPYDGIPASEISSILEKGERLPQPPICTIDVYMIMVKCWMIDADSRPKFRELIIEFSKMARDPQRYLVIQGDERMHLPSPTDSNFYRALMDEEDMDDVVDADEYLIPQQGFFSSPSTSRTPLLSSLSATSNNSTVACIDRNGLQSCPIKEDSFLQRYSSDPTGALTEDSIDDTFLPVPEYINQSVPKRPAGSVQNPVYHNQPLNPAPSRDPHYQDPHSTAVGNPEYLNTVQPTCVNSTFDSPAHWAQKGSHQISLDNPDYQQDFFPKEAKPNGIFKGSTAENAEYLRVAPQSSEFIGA
Chain of IGF1R (P08069 31-1367, species assumed): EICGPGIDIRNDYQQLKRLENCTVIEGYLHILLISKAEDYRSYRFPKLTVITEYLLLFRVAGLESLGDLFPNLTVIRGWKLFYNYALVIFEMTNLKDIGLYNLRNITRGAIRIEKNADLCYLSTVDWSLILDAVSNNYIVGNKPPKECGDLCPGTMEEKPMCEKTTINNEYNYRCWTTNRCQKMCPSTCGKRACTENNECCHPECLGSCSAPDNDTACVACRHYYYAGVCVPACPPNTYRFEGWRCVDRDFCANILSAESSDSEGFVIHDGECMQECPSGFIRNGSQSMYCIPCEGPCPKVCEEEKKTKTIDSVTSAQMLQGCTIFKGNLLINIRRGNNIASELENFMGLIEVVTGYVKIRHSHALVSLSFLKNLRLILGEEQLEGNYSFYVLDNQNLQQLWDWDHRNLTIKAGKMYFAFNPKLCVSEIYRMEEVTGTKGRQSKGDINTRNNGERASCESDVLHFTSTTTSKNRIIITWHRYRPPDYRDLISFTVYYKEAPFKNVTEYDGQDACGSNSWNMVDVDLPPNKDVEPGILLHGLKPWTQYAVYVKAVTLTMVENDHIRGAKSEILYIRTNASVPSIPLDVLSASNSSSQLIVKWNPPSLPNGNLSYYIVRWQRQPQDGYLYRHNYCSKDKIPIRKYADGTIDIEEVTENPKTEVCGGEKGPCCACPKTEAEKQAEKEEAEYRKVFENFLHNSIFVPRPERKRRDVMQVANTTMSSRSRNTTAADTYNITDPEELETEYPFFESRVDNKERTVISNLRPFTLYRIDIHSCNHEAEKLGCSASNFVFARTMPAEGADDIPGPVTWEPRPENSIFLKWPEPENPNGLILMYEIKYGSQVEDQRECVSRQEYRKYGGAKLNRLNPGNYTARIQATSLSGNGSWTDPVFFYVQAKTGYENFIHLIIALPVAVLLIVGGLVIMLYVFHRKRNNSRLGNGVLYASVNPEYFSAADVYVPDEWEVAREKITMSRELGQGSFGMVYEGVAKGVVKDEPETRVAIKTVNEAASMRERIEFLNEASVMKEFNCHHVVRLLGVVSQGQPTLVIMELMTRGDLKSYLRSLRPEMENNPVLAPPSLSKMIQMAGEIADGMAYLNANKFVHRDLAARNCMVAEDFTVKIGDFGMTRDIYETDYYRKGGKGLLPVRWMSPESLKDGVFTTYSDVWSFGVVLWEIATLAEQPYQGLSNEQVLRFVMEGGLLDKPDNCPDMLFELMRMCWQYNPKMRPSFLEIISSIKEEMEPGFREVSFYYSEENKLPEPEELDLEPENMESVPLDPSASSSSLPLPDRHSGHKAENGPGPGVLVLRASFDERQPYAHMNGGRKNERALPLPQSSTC

Consider `COc1cc(N2CCC(N3CCN(C)CC3)CC2)c(F)cc1Nc1ncc(Br)c(Nc2ccc3nc(C4CC4)ccc3c2P(C)(C)=O)n1` [Compound J-019, (6-((5-Bromo-2-((5-fluoro-2-methoxy-4-(4-(4-methylpiperazin-1-yl)piperidin-1-yl)phenyl)amino)pyrimidin-4-yl)amino)-2-cyclopropylquinolin-5-yl)dimethylphosphine oxide], for which the results for the IC50 in test [1], in test [2] and in test [3] were 16 nM, 0.33 nM and 222 nM, respectively.

With `COc1cc(Nc2ncc(Br)c(Nc3ccc4nc(C5CC5)ccc4c3P(C)(C)=O)n2)c(C#N)cc1N1CCC(N2CCN(C)CC2)CC1` [Compound J-025, 2-((5-Bromo-4-((2-cyclopropyl-5-(dimethylphosphineoxide)quinolin-6-yl)amino)pyrimidin-2-yl)amino)-4-methoxy-5-(4-(4-methylpiperazin-1-yl)piperidin-1-yl)benzonitrile], the results for the IC50 in test [1], in test [2] and in test [3] were 2310 nM, 43 nM and over 3000 nM, respectively.

Take `COc1cc(N2CCN(c3cccc(=O)n3C)CC2)c(-c2cnn(C)c2)cc1Nc1ncc(Br)c(Nc2ccc3nc(C4CC4)ccc3c2P(C)(C)=O)n1` [Compound J-050, 6-(4-(4-((5-Bromo-4-((2-cyclopropyl-5-(dimethylphosphoryl)quinolin-6-yl)amino)pyrimidin-2-yl)amino)-5-methoxy-2-(1-methyl-1H-pyrazol-4-yl)phenyl)piperazin-1-yl)-1-methylpyridin-2(1H)-one]: the results for the GI50 in test [4] and in test [5] were 42.2 nM and 1.8 nM, respectively. The IC50 in test [6] was found to be 861 nM.

Take `COc1cc(N2CCN(C3CCCC3)CC2)c(C)cc1Nc1ncc(Br)c(Nc2ccc3nc(C4CC4)ccc3c2P(C)(C)=O)n1` [Compound J-037, (6-((5-Bromo-2-((4-(4-cyclopentylpiperazin-1-yl)-2-methoxy-5-methylphenyl)amino)pyrimidin-4-yl)amino)-2-cyclopropylquinolin-5-yl)dimethylphosphine oxide]: the IC50 came to 138 nM in test [1] and 210 nM in test [3].

Regarding `COc1cc(N2CCN(c3cc(OC)c(Nc4ncc(Br)c(Nc5ccc6nc(C7CC7)ccc6c5P(C)(C)=O)n4)cc3-c3cnn(C)c3)CC2)ccn1` [Compound J-043], the GI50 in test [4] came out at 67.6 nM; in test [5], 10.9 nM. Besides, the IC50 in test [6] came to 896 nM.

As to `COc1cc(N2CCN(c3cccnc3)CC2)c(-c2cnn(C)c2)cc1Nc1ncc(Br)c(Nc2ccc3nc(C4CC4)ccc3c2P(C)(C)=O)n1` [Compound J-056, (6-((5-Bromo-2-((2-methoxy-5-(1-methyl-1H-pyrazol-4-yl)-4-(4-(pyridin-3-yl)piperazin-1-yl)phenyl)amino)pyrimidin-4-yl)amino)-2-cyclopropylquinolin-5-yl)dimethylphosphine oxide], the GI50 in test [4] turned out to be 38 nM; in test [5], 0.8 nM. The compound further displayed an IC50 in test [6] of 1100 nM.

Turning to `COc1cc(N2CCN(C3CCN(C)CC3)CC2)c(-c2cnn(C)c2)cc1Nc1ncc(Br)c(Nc2ccc3nc(C4CC4)ccc3c2P(C)(C)=O)n1` [Compound J-066, (6-((5-Bromo-2-((2-methoxy-5-(1-methyl-1H-pyrazol-4-yl)-4-(4-(1-methylpiperidine-4-yl)piperazin-1-yl)phenyl)amino)pyrimidin-4-yl)amino)-2-cyclopropylquinolin-5-yl)dimethylphosphine oxide], the GI50 in test [4] is 77.9 nM; in test [5], 4.4 nM. The compound also displayed an IC50 in test [6] of 259 nM.

Take `COc1cc(Nc2ncc(Br)c(Nc3ccc4nc(C5CC5)ccc4c3P(C)(C)=O)n2)c(C)cc1N1CCC(OC)CC1` [Compound J-033, (6-((5-Bromo-2-((5-methoxy-4-(4-methoxypiperidin-1-yl)-2-methylphenyl)amino)pyrimidin-4-yl)amino)-2-cyclopropylquinolin-5-yl)dimethylphosphine oxide]: the GI50 in test [4] is 611 nM; in test [5], 12.9 nM. This compound also returned an IC50 in test [6] of over 10000 nM.

As to `COc1cc(N(C)CCN(C)C)c(-c2cnn(C)c2)cc1Nc1ncc(Br)c(Nc2ccc3nc(C4CC4)ccc3c2P(C)(C)=O)n1` [Compound J-062, (6-((5-Bromo-2-((4-((2-(dimethylamino)ethyl)(methyl)amino)-2-methoxy-5-(1-methyl-1H-pyrazol-4-yl)phenyl)amino)pyrimidin-4-yl)amino)-2-cyclopropylquinolin-5-yl)dimethylphosphine oxide], the GI50 stood at 46.2 nM in test [4] and 1.4 nM in test [5]. Moreover, in test [6], the IC50 turned out to be 157 nM.

Regarding `COc1cc(N2CCC(N3CCN(C)CC3)CC2)c(-c2cnn(C)c2)cc1Nc1ncc(F)c(Nc2ccc3nc(C4CC4)ccc3c2P(C)(C)=O)n1` [Compound J-065], the GI50 was 73 nM in test [4] and 13 nM in test [5]. Moreover, the IC50 in test [6] came out at 425 nM.

Take `COc1cc(N2CCN(c3cnc(N(C)C)cn3)CC2)c(-c2cnn(C)c2)cc1Nc1ncc(Br)c(Nc2ccc3nc(C4CC4)ccc3c2P(C)(C)=O)n1` [Compound J-045, (6-((5-Bromo-2-((4-(4-(5-(dimethylamino)pyrazin-2-yl)piperazin-1-yl)-2-methoxy-5-(1-methyl-1H-pyrazol-4-yl)phenyl)amino)pyrimidin-4-yl)amino)-2-cyclopropylquinolin-5-yl)dimethylphosphine oxide]: the GI50 is 130 nM in test [4] and 13.5 nM in test [5]. In test [6], this compound came in with a half-inhibitory concentration (IC50) of 710 nM.

Turning to `COc1cncc(N2CCN(c3cc(OC)c(Nc4ncc(Br)c(Nc5ccc6nc(C7CC7)ccc6c5P(C)(C)=O)n4)cc3-c3cnn(C)c3)CC2)n1` [Compound J-049, (6-((5-Bromo-2-((2-methoxy-4-(4-(6-methoxypyrazin-2-yl)piperazin-1-yl)-5-(1-methyl-1H-pyrazol-4-yl)phenyl)amino)pyrimidin-4-yl)amino)-2-cyclopropylquinolin-5-yl)dimethylphosphine oxide], the GI50 in test [4] amounted to 109 nM; in test [5] it was 8.5 nM. The same compound returned an IC50 in test [6] of 2300 nM.

For `COc1cc(N2CCN(c3ccncc3)CC2)c(-c2cnn(C)c2)cc1Nc1ncc(Br)c(Nc2ccc3nc(C4CC4)ccc3c2P(C)(C)=O)n1` [Compound J-057, (6-((5-Bromo-2-((2-methoxy-5-(1-methyl-1H-pyrazol-4-yl)-4-(4-(pyridin-4-yl)piperazin-1-yl)phenyl)amino)pyrimidin-4-yl)amino)-2-cyclopropylquinolin-5-yl)dimethylphosphine oxide], the figures for the GI50 in test [4] and in test [5] were 54 nM and 3 nM, respectively. For the same compound, it took 328 nM to reach half-maximal inhibition in test [6] (IC50).

These data come from US20230131025A1, “QUINOLYL PHOSPHINE OXIDE COMPOUND, AND COMPOSITION AND APPLICATION THEREOF” (Betta Pharmaceuticals Co., Ltd., priority 2020, published 2023).
